Reference: patent publication US11090324B2, “Composition, for remedying female climacteric syndrome symptoms, comprising tectorigenin 7-O-Xylosylglucoside” (LG Household & Health Care Ltd., priority 2017, dated 2021)

Columns and labels:
[1] = system: ovariectomy (OVX) female Sprague-Dawley rats; assay: Serum CTX level (bone resorption marker) in ovariectomized rats, ELISA; type: in vivo, rat; conditions: for CTX: serum, 8 weeks, sham 42.3, OVX control 78.2
Protocol: 11-12 week-old female Sprague-Dawley rats were subjected to sham operation (group 1, n=10) or ovariectomy (OVX) (groups 2-8, n=10 per each group). After a week from the operation, 0.01 mL of a sample per body weight (g) of each rat was administered orally every day for 4 weeks. 17β-Estradiol (E2) was administered to the positive control group and a 1:5:5 mixture of the three compounds tectorigenin, tectoridin and tectorigenin 7-O-xylosylglucoside was administered to the test groups. 4 weeks after the administration, the skin temperature at 2 cm where the tail starts was measured using an infrared thermometer. [table] In order to measure CTX (C-terminal telopeptide of type I collagen), which is a marker related with bone resorption, the same rats as in Example 2 were orally administered with a sample for 8 weeks and then serum was collected. The CTX level in the serum was measured using the rat C-telopeptide of type I collagen ELISA kit (MyBioSource) according to the manufacturer's instructions.

[2] = system: ovariectomy (OVX) female Sprague-Dawley rats; assay: Tail skin temperature of ovariectomized rats (vasomotor symptoms); type: in vivo, rat; conditions: oral 4 weeks, mixture 5 and 10 mg/kg/day, single compounds 10 mg/kg/day
Description: It is known that 75% of […] women experience vasomotor symptoms. Facial flushing (hot flush) is the representative symptom where the skin on face, neck and chest is reddened abruptly, accompanied by unpleasant flushing and sweating. The change in the vasomotor symptoms can be evaluated by measuring the change in skin temperature. In an animal experiment, it can be measure by the skin temperature of the rat tail (Guidelines for evaluation of health functional food, ‘Helpful for health of […] women’, National Institute of Food and Drug Safety Evaluation). 11-12 week-old female Sprague-Dawley rats were subjected to sham operation (group 1, n=10) or ovariectomy (OVX) (groups 2-8, n=10 per each group). After a week from the operation, 0.01 mL of a sample per body weight (g) of each rat was administered orally every day for 4 weeks. 17β-Estradiol (E2) was administered to the positive control group and a 1:5:5 mixture of the three compounds tectorigenin, tectoridin and tectorigenin 7-O-xylosylglucoside was administered to the test groups. 4 weeks after the administration, the skin temperature at 2 cm where the tail starts was measured using an infrared thermometer. [table]

estrogen receptors = assay: ERE (estrogen response element) reporter assay; type: cell-based; conditions: sum of the concentrations of the three compounds 10 ppm; with respect to negative control group (1.0)
Protocol: ERE (estrogen response element) reporter assay was performed to investigate the activity of the three compounds tectorigenin 7-O-xylosylglucoside, tectorigenin and tectoridin for estrogen receptors. Tectorigenin, tectoridin and tectorigenin 7-O-xylosylglucoside were treated at ratios described in Table 1 (the sum of the concentrations of the three compounds was 10 ppm).

| Structure (SMILES) | CTX ([1]; 0.5 mg/kg/day oral) [ng/mL] | Effect on increase in tail temperature caused by estrogen deficiency (in words) [2] | Effect on CTX level / bone resorption (in words) ([1]; oral 8 weeks, compared to the OVX group or to tectorigenin and tectoridin) | CTX ([1]; 10 mg/kg/day oral) [ng/mL] | Activity for estrogen receptors Fold induction (estrogen receptors) [fold] |
| --- | --- | --- | --- | --- | --- |
| C[C@]12CC[C@@H]3c4ccc(O)cc4CC[C@H]3[C@@H]1CC[C@@H]2O [17β-estradiol (E2), 17β-Estradiol, reference compound] | 52.6 |  |  |  |  |
| COc1c(O[C@@H]2O[C@H](CO[C@@H]3OC[C@@H](O)[C@H](O)[C@H]3O)[C@@H](O)[C@H](O)[C@H]2O)cc2occ(-c3ccc(O)cc3)c(=O)c2c1O [Tectorigenin 7-O-xylosylglucoside, tectorigenin 7-O-xylosylglucoside] |  | best effect of suppressing increase in the tail temperature | most inhibited bone resorption | 58.4 | 34 |
| COc1c(O)cc2occ(-c3ccc(O)cc3)c(=O)c2c1O [Tectorigenin, tectorigenin] |  |  |  | 71.5 |  |
| COc1c(O[C@@H]2O[C@H](CO)[C@@H](O)[C@H](O)[C@H]2O)cc2occ(-c3ccc(O)cc3)c(=O)c2c1O [Tectoridin, tectoridin] |  |  |  | 70.4 |  |
